Usually IC50 stands for the point on the concentration scale where inhibition reaches its midpoint. For orientation: EC50 means the concentration at which the effect is half-maximal.

Molecules are shown by their SMILES. Like-named read-outs stand apart in the source and are kept apart here.

Results on ten compounds are retold here after patent US4329347A, “Cardiotonic and antithrombotic sulfur-containing derivatives of carbostyril” (Boehringer Ingelheim GmbH, priority 1978, dated 1982).

One data set has as its system auricles (rat heart). The experiment in a line: Positive inotropic activity on isolated rat auricles. More on the design: species or system rats. To be noted: 1×10^-5 gm/ml, 30° C., from the starting values, read-out: % Increase in Force of Contraction. The method, then:
Rats were anesthetized with ether and subsequently killed by a blow on the neck. After opening the thorax, the heart was removed and both auricles were separated. The auricles were put into an organ bath of 100 ml containing a tyrode solution at a temperature of 30° C. The tyrode solution was infused with carbogen (95% of O2 and 5% of CO2). The spontaneous contractions of the auricles were registered isometrically. The auricles were weighted with 1 gm. The compounds in question were tested on 4 auricles each at 1×10^-5 gm/ml. The alteration of the contraction force was registered in % from the starting values.

For data set [1], the system named is Platelet Thromboses in the Rat. The data set is described as follows: Influence on platelet thromboses in the rat (electrical irritation of a vein). It counts as in vivo. Particulars: male rats, five animals per dose, 20 minutes observation, vs. untreated group; dose not given. The method, then:
Literature: H. Poliwoda, J. Lilli, G. Hagemann, D. Schyma: Z. ges. exp. Med., 145, 252 (1968)
Male rats (body weight between 70 and 90 grams) received an intraperitoneal Nembutal anesthesia (dose: 50 to 60 mg/kg). To avoid hypothermia, they were positioned on a heated test table (about 37° C.). The respiratory passage was held free by insertion of a tracheal cannula.
After a transverse abdominal incision was made, an intestinal loop was exposed and fixed, and a vein, with a diameter of about 300 μ was prepared. A monopolar platinum electrode embedded in glass and having a tip diameter of about 100μ was applied to the vein as an irritating cathode. The indifferent electrode was applied to the same vessel opposite the cathode. The irritation was provoked by 150 volts of direct current for a period of 100 milliseconds. After the irritation, the area of observation was continuously rinsed with warm (37° C.) physiological salt solution.
The formation and growth of the thrombosis was followed under a binocular microscope over a time period of 20 minutes. During the entire period of observation, the percentage of the vessel volume closed by the thrombosis was estimated at different time intervals.
Five animals per dose were used, and the results were averaged.
In the test compound experiments, the average size of the thrombosis in the treated animal group was compared with that of an untreated animal group. The result was given as "percentage reduction of the average thrombosis size." The following table contains the values obtained.

In data set [2] the test system is phosphodiesterase (PDE), supernatant of human blood platelets. The experiment in a line: PDE inhibition (3H-cAMP hydrolysis). It counts as biochemical. To be noted: human blood platelet PDE, 1 μmol/liter 3H-cAMP, pH 7.4, 15 minutes, 37° C. The procedure:
cAMP is hydrolysed to AMP by phosphodiesterase (PDE) from various sources, including blood platelets. This hydrolysis is inhibited by PDE inhibitors according to the concentration.
The phosphodiesterase used was the 10,000×g supernatant of human blood platelets which had been frozen with water and thawed out again.
An amount of 0.3 ml of a mixture which contained 0.1 mole/liter of trihydroxy-aminomethane (pH 7.4), 3 mmole/liter of magnesium chloride, 1 mmole/liter of AMP, 1 μmol/liter of ^3 H-cAMP (specific activity about 10 MBq/μmol), PDE as well as the substance to be tested and water for the control were incubated for 15 minutes at 37° C.
The incubation was stopped by the addition of 0.5 ml of zinc sulfate (0.266 mole/liter) and 0.5 ml of barium hydroxide (0.266 mole/liter), the precipitate was centrifuged and the activity remaining in the supernatant of the unreacted ^3 H-cAMP was determined. From a comparison of the substance preparations and the control preparations, the concentration for a 50% inhibiting activity (IC50) of the respective substance was calculated.

Data set [3] has as its system thrombocyte aggregation in platelet-rich plasma of healthy human donors. The data set is described as follows: Thrombocyte aggregation inhibiting activity by the method of Born and Cross (platelet-rich plasma). Particulars: optical density. It counts as cell-based. The method, then:
1. Determination of the thrombocyte aggregation inhibiting activity by the method of Born and Cross [J. Physiol. 170, 397 (1964)]:
The thrombocyte aggregation was measured in the platelet-rich plasma of healthy human donors. The decrease in optical density was measured and recorded photometrically after the addition of adenosine diphosphate or collagen. From the angle of inclination of the density curve, the rate of aggregation was estimated (Vmax). The optical density was taken as the point on the curve where the most light was transmitted (O.D.).
The EC50 values in the tables indicate the optical density.
Small doses of collagen were chosen, but sufficient to give irreversible aggregation. To provoke maximum aggregation, about 0.01 ml of the collagen solution was added to 1 ml of platelet-rich plasma. (Commercial collagen of Hormonchemie, Munich). The adenosine diphosphate (ADP) doses were chosen to give only the first phase of the BORN curve. The necessary amount of ADP was about 1×10^-6 mol/l. Commercial ADP of Boehringer Mannheim was used.
The substance dose which produced a 50% inhibition of the thrombozytes aggregation (EC50) was determined graphically.

The next data set concerns conscious mice. The experiment in a line: Prolongation of the bleeding time (mouse tail). To be noted: po, 10 mg/kg orally, after 1 hour, compared to control group, read-out: Prolongation of the bleeding time in % after one hour. It counts as in vivo. The method, then: The function of the thrombocytes can be determined by measuring the bleeding time. The normal bleeding time in human beings is in the range of 1 to 3 minutes and needs intact thrombozytes in a sufficient number. If the number of thrombocytes is normal and the bleeding time is prolonged, this signifies a disturbed function of the thrombocytes. This is found in some congenital defects of thrombocyte function (V. Willebrand's disease, for example). If, on the other hand it is the aim to prevent spontaneous aggregation of the thrombocytes and occlusion in the arterial system by antithrombotic drugs, the bleeding time should be prolonged as a consequence. Therefore, using antithrombotic substances, a prolongation of the bleeding time is expected. If the plasma coagulation system is not influenced by such a medicine, coagulation tests will give a normal result.
To measure the bleeding time, 10 mg/kg of the test compound is administered orally to conscious mice. After 1 hour, 0.5 mm of the tip of the mousetail is cut off and droplets of blood are gently removed with filter paper every 30 second. The number of drops of blood give a measure for the bleeding time (5 animals/experiment).
The numbers in the following table represent the prolongation in % compared to the control group.

The nature of the next data set: Acute toxicity, oral. To be noted: mouse, in vivo; mice, single oral dose, 14 days observation; read-out: Acute Toxicity per os. It counts as in vivo. The method, then:
(§1) The acute toxicity of the test compounds was determined on groups of 10 mice each after oral administration of a single dose of 1,000 mg/kg (observation time: 14 days).

In the next data set the test system is mice. The experiment in a line: Acute toxicity, oral. It counts as in vivo. To be noted: single oral dose of 1,000 mg/kg, 14 days observation. The procedure:
as §1

Where [4] appears, read: ADP-induced (about 1×10^-6 mol/l), read-out: EC50 (50% inhibition of thrombocyte aggregation), ADP.
Setting [5] is: collagen-induced, read-out: EC50 (50% inhibition of thrombocyte aggregation), Collagen.

On to `O=C1CCc2cc(OCCCC[S+]([O-])c3ccccc3)ccc2N1` (stereo not shown) [B, 6-(4-Phenylsulfinyl-butoxy)-3,4-dihydro-carbostyril], for which the activation at 10 µg/mL with auricles (rat heart) is 30%. In data set [1], the “Percentage Reduction of the Average Thrombosis Size” value (“Percentage Reduction” for short) was found to be 23%. In data set [2], this compound registered an IC50 of 1.9 µM. In addition, the EC50 in data set [3] (setting [4]) is 20 µM; in data set [3] (setting [5]) it was 4 µM. Further, the change in vivo at 10 mg/kg in the data set with conscious mice was determined as 102%. Further, the LD50 at 336 h in “Acute toxicity, oral” is > 1000 mg/kg. Further, in the data set with mice, the “animals died (acute toxicity per os)” value is recorded as 0 out of 10 animals.
Take `O=C1CCc2cc(OCCCCS(=O)(=O)c3ccccc3)ccc2N1` [Compound C, 6-(4-Phenylsulfonyl-butoxy)-3,4-dihydro-carbostyril]: the activation at 10 µg/mL in the data set on auricles (rat heart) came to 35%. The compound also returned an IC50 in data set [2] of 1.5 µM. Further, the EC50 in data set [3] (setting [4]) came out at 15 µM; in data set [3] (setting [5]) it was 5 µM. Besides, the change in vivo at 10 mg/kg in the data set on conscious mice was found to be 26%. Besides, the LD50 at 336 h in the data set “Acute toxicity, oral” is > 1000 mg/kg. The “animals died (acute toxicity per os)” value in the data set with mice is reported as 0 out of 10 animals.
As for `O=C1CCc2cc(OCCCC[S+]([O-])c3ccccn3)ccc2N1` (stereo not shown) [E, 6-[4-(2-Pyridyl-sulfinyl)-butoxy]-3,4-dihydro-carbostyril], in the data set with auricles (rat heart), the activation at 10 µg/mL was 16%. The “Percentage Reduction” value in data set [1] is given as 16%. Also, the IC50 in data set [2] worked out at 3.9 µM. Besides, the EC50 in data set [3] (setting [4]) amounted to 25 µM; in data set [3] (setting [5]) it was 6.5 µM. The change in vivo at 10 mg/kg in the data set with conscious mice stood at 152%. In addition, the LD50 at 336 h in “Acute toxicity, oral” is > 1000 mg/kg. Further, the “animals died (acute toxicity per os)” value with mice was 0 out of 10 animals.
`O=C1CCc2cc(OCCCCS(=O)(=O)c3ccccn3)ccc2N1` [F, 6-[4-(2-Pyridyl-sulfonyl)-butoxy]-3,4-dihydro-carbostyril]: the activation at 10 µg/mL in the data set on auricles (rat heart) is 18%. The IC50 in data set [2] was found to be 3.8 µM. Besides, the EC50 in data set [3] (setting [4]) and in data set [3] (setting [5]) was 20 µM throughout. In addition, in the data set with conscious mice, the change in vivo at 10 mg/kg amounted to 91%. The LD50 at 336 h in the data set “Acute toxicity, oral” was > 1000 mg/kg. Also, the “animals died (acute toxicity per os)” value with mice is recorded as 0 out of 10 animals.
As to `O=C1CCc2cc(OCCCC[S+]([O-])c3ccc(Cl)cc3)ccc2N1` (stereo not shown) [I, 6-[4-(4-Chlorophenyl-sulfinyl)-butoxy]-3,4-dihydro-carbostyril], the activation at 10 µg/mL in the data set on auricles (rat heart) turned out to be 52%. Besides, the “Percentage Reduction” value in data set [1] came out at 4%. Further, it took 0.8 µM to reach half-maximal inhibition in data set [2] (IC50). The EC50 in data set [3] (setting [4]) came out at 10 µM; in data set [3] (setting [5]) it was 4 µM. Also, the change in vivo at 10 mg/kg in the data set on conscious mice is > 300%. Moreover, the LD50 at 336 h in the data set “Acute toxicity, oral” was > 1000 mg/kg. For the same compound, the “animals died (acute toxicity per os)” value in the data set with mice is 0 out of 10 animals.
For the compound `O=C1CCc2cc(OCCCC[S+]([O-])c3ccc4ccccc4c3)ccc2N1` (stereo not shown) [L, 6-[4-(2-Naphthyl-sulfinyl)-butoxy]-3,4-dihydro-carbostyril], the activation at 10 µg/mL in the data set with auricles (rat heart) worked out at 63%. The compound further returned an IC50 in data set [2] of 0.14 µM. Moreover, the EC50 in data set [3] (setting [4]) turned out to be 10 µM; in data set [3] (setting [5]), 1 µM. In the data set on conscious mice, the change in vivo at 10 mg/kg was 15%. Further, in “Acute toxicity, oral”, the LD50 at 336 h is > 1000 mg/kg. Further, the “animals died (acute toxicity per os)” value in the data set on mice is listed as 0 out of 10 animals.
As for `COc1ccccc1[S+]([O-])CCCCOc1ccc2c(c1)CCC(=O)N2` (stereo not shown) [M, 6-[4-(2-Methoxyphenyl-sulfinyl)-butoxy]-3,4-dihydro-carbostyril], the activation at 10 µg/mL with auricles (rat heart) turned out to be 65%. The compound also had an IC50 in data set [2] of 0.15 µM. Further, the EC50 in data set [3] (setting [4]) was 22 µM; in data set [3] (setting [5]) it was 4 µM. Also, the change in vivo at 10 mg/kg in the data set on conscious mice amounted to 27%. Moreover, the LD50 at 336 h in the data set “Acute toxicity, oral” is > 1000 mg/kg. Also, the “animals died (acute toxicity per os)” value with mice is on record as 0 out of 10 animals.
Take `O=c1ccc2cc(OCCCC[S+]([O-])c3ccc(Cl)c(Cl)c3)ccc2[nH]1` (stereo not shown) [P, 6-[4-(3,4-Dichlorophenyl-sulfinyl)-butoxy]-carbostyril]: the “Percentage Reduction” value in data set [1] was 15%. The compound further displayed an IC50 in data set [2] of 0.22 µM. In addition, the EC50 in data set [3] (setting [4]) amounted to 1.8 µM; in data set [3] (setting [5]) it was 0.2 µM. The change in vivo at 10 mg/kg with conscious mice is 12%. Besides, the LD50 at 336 h in the data set “Acute toxicity, oral” is > 1000 mg/kg. The “animals died (acute toxicity per os)” value in the data set on mice is listed as 0 out of 10 animals.
Consider `Cc1cc(=O)[nH]c2ccc(OCCCC[S+]([O-])c3ccccc3)cc12` (stereo not shown) [Q, 4-Methyl-6-(4-phenylsulfinyl-butoxy)-carbostyril], for which, in the data set with auricles (rat heart), the activation at 10 µg/mL is 58%. Moreover, the “Percentage Reduction” value in data set [1] turned out to be 22%. This compound also gave an IC50 in data set [2] of 0.64 µM. Moreover, the EC50 in data set [3] (setting [4]) stood at 40 µM; in data set [3] (setting [5]) it was 3.6 µM. Further, in the data set with conscious mice, the change in vivo at 10 mg/kg stood at 39%. The LD50 at 336 h in the data set “Acute toxicity, oral” is > 1000 mg/kg. The “animals died (acute toxicity per os)” value in the data set on mice was 0 out of 10 animals.
As for `O=C1CCc2cc(OCCCC[S+]([O-])c3cc(Cl)ccc3Cl)ccc2N1` (stereo not shown) [S, 6-[4-(2,5-Dichlorophenyl-sulfinyl)-butoxy]-3,4-dihydro-carbostyril], the activation at 10 µg/mL in the data set on auricles (rat heart) was found to be 83%. This compound had an IC50 in data set [2] of 2.1 µM. In addition, the EC50 was 10 µM in data set [3] (setting [4]) and 1 µM in data set [3] (setting [5]). In addition, the LD50 at 336 h in the data set “Acute toxicity, oral” was > 1000 mg/kg. In addition, in the data set on mice, the “animals died (acute toxicity per os)” value was 0 out of 10 animals.
